Test results as given in patent US20190135834A1, “5-SUBSTITUTED AZABENZIMIDAZOLE DERIVATIVE HAVING ???? ACTIVATION ACTION” (Shionogi & Co., Ltd., priority 2016, published 2019).

Target: T1, Human AMPK α2ß2γ1 (Homo sapiens, UniProt O43741+P54646)
T1 construct: The full length cDNAs of human AMPK ß2 (NM_005399.3) and human AMPK α2 (NM_006252.3); The full length cDNAs of human AMPK ß2 (NM_005399.3); 6xHis (N); made in house; host or cells: Escherichia coli BL21 CodonPlus (DE3)-RIL
Test: Test Example 2: evaluation of an activator for AMP-activated protein kinase (AMPK), LabChip mobility shift assay with CaMKK2-phosphorylated enzyme
Type: biochemical
Settings: for EC150 (compound concentration showing 150% relative to the control (100%)): FL-Peptide 7 substrate, 25° C., 2 hours; for Emax: relative to control (100%), read-out: Emax (maximum rate of increase in activity within the measurement range)
Experimental: The full length cDNAs of human AMPK ß2 (NM_005399.3) and human AMPK α2 (NM_006252.3) were inserted into the MCS1 and MCS2 of the pETDuet-1 vector to prepare a human AMPK ß2 and human AMPK α2 (6× His tag at the 5′ terminus) expressing plasmid. The plasmid was cotransfected with an expression plasmid, in which the full length cDNA of human AMPK γ1 (NM_002733.3) had been inserted into pET28b(+), into BL21 CodonPlus (DE3)-RIL to obtain an expression strain. The expression strain was cultured in TB medium, followed by induction with 0.5 mM IPTG, and cultured at 25° C. for 3 hours and then harvested. After ultrasonication, supernatant was collected and applied to Histrap FF column (GE) and RESOURCE Q column (GE) to prepare 12.5 mg of purified sample containing three types of subunit from 1.8 L of broth.
Preparation method of human CaMKK2 used to impart activity to AMPK An expression vector, in which the full length cDNA of human CAMKK ß (NM_172226.1) had been inserted into pGEX-6P-3, was transfected into BL21 Star (DE3). The expression strain was cultured in TB medium, followed by induction with 0.5 mM IPTG, and cultured at 25° C. for 3 hours and then harvested. After ultrasonication, supernatant was collected and applied to GSTrap FF column (GE) to prepare 14 mg of GST-fused CAMKK ß from 720 ml of broth.
Thus, phosphorylation treatment was carried out as pretreatment.
Human AMPK α2ß2γ1 in an amount to give a conversion rate of approximately 10% by reaction for 2 hours, and CaMKK2 in an amount capable of sufficiently imparting activity to AMPK for one hour were mixed in a buffer solution consisting of a 50 mM HEPES-NaOH buffer solution (pH 7.0), 100 mM NaCl, 5 mM magnesium chloride, 0.1% bovine serum albumin, 0.2 mM sodium orthovanadate(V), 1 mM ethylene glycol-bis(2-aminoethyl ether)-N,N,N′,N′-tetraacetic acid (EGTA), 5 mM disodium ß-glycerophosphate, 1 mM dithiothreitol and 0.2 mM ATP, and the resulting liquid was left to stand at 25° C. for 1 to 1.5 hours to sufficiently phosphorylate AMPK.
After that, to the enzyme liquid, which had been subjected to phosphorylation treatment, a compound dissolved in DMSO was added so as to have a 1% DMSO concentration. The resulting liquid was left to stand for 10 minutes.
To the liquid, a substrate solution consisting of a 50 mM HEPES-NaOH buffer solution (pH 7.0), 100 mM NaCl, 10 mM magnesium chloride, 0.1% bovine serum albumin, 0.2 mM sodium orthovanadate(V), 1 mM ethylene glycol-bis(2-aminoethyl ether)-N,N,N′,N′-tetraacetic acid (EGTA), 5 mM disodium ß-glycerophosphate, 2 mM dithiothreitol, 0.4 mM ATP and 3 μM FL-Peptide 7 (manufactured by Caliper Life Sciences, Inc.) was added in equal amount (10 μl in total). The resulting liquid was allowed to react at 25° C. for 2 hours, and 10 μl of 20 mM EDTA was added thereto to stop the reaction.
To detect phosphorylated fluorescent substrates, the reaction mixture was applied to a measuring device, LabChip EZ Reader II manufactured by Caliper Life Science, Inc., for detecting fluorescence by using differences in mobility due to differences in charge. The setting conditions for the device were pressure, −1.5 PSI; upstream voltage, −2250 V; downstream voltage, −400 V; post sample buffer sip time, 40 seconds; final delay, 120 seconds; and peak order, Product First.
A conversion rate was calculated from the peak heights of the obtained substrate and product. The conversion rate when not containing a compound was used as a control, and a concentration dependent curve was made by plotting the rate of increase in activity to the control at each concentration of a compound.

T1 sequence (P54646 whole entry): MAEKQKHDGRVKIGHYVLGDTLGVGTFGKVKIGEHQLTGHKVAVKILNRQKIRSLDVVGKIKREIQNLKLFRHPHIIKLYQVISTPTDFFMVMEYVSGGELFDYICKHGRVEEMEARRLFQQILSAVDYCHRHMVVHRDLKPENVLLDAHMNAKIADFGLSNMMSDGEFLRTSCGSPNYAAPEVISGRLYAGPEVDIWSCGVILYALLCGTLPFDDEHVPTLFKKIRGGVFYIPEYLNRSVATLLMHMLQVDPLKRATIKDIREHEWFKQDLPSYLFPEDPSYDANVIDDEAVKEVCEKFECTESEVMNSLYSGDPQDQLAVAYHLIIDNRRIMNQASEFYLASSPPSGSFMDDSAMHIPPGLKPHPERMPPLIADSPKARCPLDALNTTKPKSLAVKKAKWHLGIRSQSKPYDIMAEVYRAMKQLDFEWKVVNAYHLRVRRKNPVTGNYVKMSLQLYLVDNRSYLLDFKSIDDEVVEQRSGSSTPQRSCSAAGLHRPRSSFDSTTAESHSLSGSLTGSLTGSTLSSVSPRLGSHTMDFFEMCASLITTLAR
T1 sequence (O43741 whole entry): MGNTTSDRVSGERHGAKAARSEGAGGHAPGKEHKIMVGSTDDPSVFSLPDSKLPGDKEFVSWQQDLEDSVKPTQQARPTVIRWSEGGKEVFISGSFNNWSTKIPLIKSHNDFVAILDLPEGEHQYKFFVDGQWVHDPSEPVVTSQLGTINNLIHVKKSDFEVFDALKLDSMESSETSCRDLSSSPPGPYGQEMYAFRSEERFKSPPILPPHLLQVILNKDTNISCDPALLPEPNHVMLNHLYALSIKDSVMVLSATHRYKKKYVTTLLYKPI
T1 sequence (P54619 whole entry partner): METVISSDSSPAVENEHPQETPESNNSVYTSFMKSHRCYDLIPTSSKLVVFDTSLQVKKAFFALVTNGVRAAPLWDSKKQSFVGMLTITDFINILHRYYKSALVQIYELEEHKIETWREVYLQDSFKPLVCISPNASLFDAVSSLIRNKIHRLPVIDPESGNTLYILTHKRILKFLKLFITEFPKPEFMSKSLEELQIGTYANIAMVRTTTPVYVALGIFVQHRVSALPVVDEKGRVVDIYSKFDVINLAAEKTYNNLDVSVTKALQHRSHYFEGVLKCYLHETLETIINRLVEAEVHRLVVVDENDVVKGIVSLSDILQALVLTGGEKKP

O[C@@H]1CO[C@H]2[C@@H]1OC[C@H]2Oc1nc2nc(NC3CCc4cc(OCC5COC5)cc(F)c43)c(Cl)cc2[nH]1 (stereo partly drawn) [Compound I-2-53]
EC150 (compound concentration showing 150% relative to the control (100%)): 4 nM
Emax: 637%

O[C@@H]1CO[C@H]2[C@@H]1OC[C@H]2Oc1nc2nc(NC3CCc4cc(OCC5(F)COC5)cc(F)c43)c(Cl)cc2[nH]1 (stereo partly drawn) [Compound I-1-99]
EC150 (compound concentration showing 150% relative to the control (100%)): 4.6 nM
Emax: 422%

CS(=O)(=O)CCCOc1cc(F)c2c(c1)CCC2Nc1nc2nc(O[C@@H]3CO[C@H]4[C@@H]3OC[C@H]4O)[nH]c2cc1Cl (stereo partly drawn) [Compound I-2-55]
EC150 (compound concentration showing 150% relative to the control (100%)): 3.6 nM
Emax: 637%

Cc1ncc(-c2cc(F)c3c(c2)CC[C@@H]3Nc2nc3nc(O[C@@H]4CO[C@H]5[C@@H]4OC[C@H]5O)[nH]c3cc2Cl)cn1 [Compound I-2-46]
EC150 (compound concentration showing 150% relative to the control (100%)): 3.3 nM
Emax: 708%

O[C@@H]1CO[C@H]2[C@@H]1OC[C@H]2Oc1nc2nc(NC3CCc4cc(OCCN5CCOCC5)cc(F)c43)c(Cl)cc2[nH]1 (stereo partly drawn) [Compound I-1-96]
EC150 (compound concentration showing 150% relative to the control (100%)): 3.6 nM
Emax: 430%

O[C@@H]1CO[C@H]2[C@@H]1OC[C@H]2Oc1nc2nc(NC3CCc4cc(OC5CCNCC5)cc(F)c43)c(Cl)cc2[nH]1 (stereo partly drawn) [Compound I-1-93]
EC150 (compound concentration showing 150% relative to the control (100%)): 4 nM
Emax: 444%

O=S(=O)(NCCOc1cc(F)c2c(c1)CCC2Nc1nc2nc(O[C@@H]3CO[C@H]4[C@@H]3OC[C@H]4O)[nH]c2cc1Cl)C(F)F (stereo partly drawn) [Compound I-2-32]
EC150 (compound concentration showing 150% relative to the control (100%)): 9 nM
Emax: 714%

O[C@@H]1CO[C@H]2[C@@H]1OC[C@H]2Oc1nc2cc(Cl)c(NC3CCc4cc(OCCOC(F)F)cc(F)c43)nc2[nH]1 (stereo partly drawn) [Compound I-2-14]
EC150 (compound concentration showing 150% relative to the control (100%)): 5.6 nM
Emax: 594%

N#Cc1cc(F)c2c(c1)CC[C@@H]2Nc1nc2nc(O[C@@H]3CO[C@H]4[C@@H]3OC[C@H]4O)[nH]c2cc1Cl [Compound I-2-10]
EC150 (compound concentration showing 150% relative to the control (100%)): 3.4 nM
Emax: 642%

COC/C=C/c1cnc2c(c1)CCC2Nc1nc2nc(O[C@@H]3CO[C@H]4[C@@H]3OC[C@H]4O)[nH]c2cc1Cl (single isomer, unassigned) [Compound I-1-13]
EC150 (compound concentration showing 150% relative to the control (100%)): 2 nM
Emax: 604%

CCOc1ncc(-c2cc(F)c3c(c2)CC[C@@H]3Nc2nc3nc(O[C@@H]4CO[C@H]5[C@@H]4OC[C@H]5O)[nH]c3cc2Cl)cn1 [Compound I-2-71]
EC150 (compound concentration showing 150% relative to the control (100%)): 8.6 nM
Emax: 590%

O[C@@H]1CO[C@H]2[C@@H]1OC[C@H]2Oc1nc2nc(NC3CCc4cc(-c5ccoc5)cc(F)c43)c(Cl)cc2[nH]1 (stereo partly drawn) [Compound I-2-21]
EC150 (compound concentration showing 150% relative to the control (100%)): 4.9 nM
Emax: 650%

CCc1ncc(-c2cc(F)c3c(c2)CC[C@@H]3Nc2nc3nc(O[C@@H]4CO[C@H]5[C@@H]4OC[C@H]5O)[nH]c3cc2Cl)cn1 [Compound I-2-69]
EC150 (compound concentration showing 150% relative to the control (100%)): 3 nM
Emax: 598%

CCOC/C=C/c1cc(F)c2c(c1)CC[C@@H]2Nc1nc2nc(O[C@@H]3CO[C@H]4[C@@H]3OC[C@H]4O)[nH]c2cc1Cl [Compound I-2-07]
EC150 (compound concentration showing 150% relative to the control (100%)): 2 nM
Emax: 727%

O[C@@H]1CO[C@H]2[C@@H]1OC[C@H]2Oc1nc2nc(N[C@H]3CCc4cc(-c5cnc(C6CC6)nc5)cc(F)c43)c(Cl)cc2[nH]1 [Compound I-2-57]
EC150 (compound concentration showing 150% relative to the control (100%)): 11 nM
Emax: 636%
